In patent US7776847B2, “Benzisothiazoles useful for treating or preventing HCV infection” (priority 2005, dated 2010):

The molecules below were run on HCV replicon (assay: HCV replicon luciferase reporter assay). Conditions: Hepatitis C virus, Table 5; read-out: IC50.
Format: cell-based
Set-up: scale not given here
Method in brief: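 IC50 is the compound amount halving luciferase signal, measured after 24–48 h treatment at various concentrations. Cells carrying the HCV replicon were pre-incubated 24 h at 37° C, 5% CO2 after seeding at about 5,000–7,500 cells/well before dosing.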

How did the IC50 turn out when `CCCCC(=O)Nc1ccc2sc(C(=O)NCCCNc3nsc4ccccc34)cc2c1` [Compound 456, N-(3-(benzo[d]isothiazol-3-ylamino)propyl)-5-pentanamidobenzo[b]thiophene-2-carboxamide] was run?
The IC50 was < 5 µM.

Which IC50 does the source give for `COc1ccc(-c2ccc(CN(CCCNc3nsc4ccccc34)C(=O)CN3CCN(c4ccccc4)CC3)cc2)cc1` [Compound 256, N-(3-(benzo[d]isothiazol-3-ylamino)propyl)-N-((4′-methoxybiphenyl-4-yl)methyl)-2-(4-phenylpiperazin-1-yl)acetamide] here?
Its IC50 is < 5 µM.

How did the IC50 turn out when `CCCC(=O)Nc1ccc2oc(C(=O)NCCCNc3nsc4ccccc34)cc2c1` [Compound 454, N-(3-(benzo[d]isothiazol-3-ylamino)propyl)-5-butyramidobenzofuran-2-carboxamide] was run?
The IC50 was < 5 µM.

With `Clc1cccc(NCCCNc2nsc3ccccc23)n1` [Entry 230, N^1-(benzo[d]isothiazol-3-yl)-N^3-(6-chloropyridin-2-yl)propane-1,3-diamine] as the molecule, how does the IC50 read?
Its IC50 is < 5 µM.

Which IC50 does the source give for `CC(C)Oc1ccccc1-c1cccc(C(=O)NCCCNc2nsc3ccccc23)c1` [Compound 376, N-(3-(benzo[d]isothiazol-3-ylamino)propyl)-6′-isopropoxybiphenyl-3-carboxamide] here?
The IC50 was < 5 µM.

With `O=S(=O)(NCCCNc1nsc2ccccc12)c1ccc(-c2ccc(OC(F)(F)F)cc2)cc1` [Compound 333, N-(3-(benzo[d]isothiazol-3-ylamino)propyl)-4′-(trifluoromethoxy)biphenyl-4-sulfonamide] as the molecule, how does the IC50 read?
Its IC50 is < 5 µM.

For `COC(=O)c1ccc(S(=O)(=O)NCCCNc2nsc3ccccc23)o1` [Compound 244, methyl 5-(N-(3-(benzo[d]isothiazol-3-ylamino)propyl)sulfamoyl)furan-2-carboxylate], which IC50 is on record?
The IC50 was < 5 µM.

`c1ccc2c(NCCNc3nsc4ccccc34)nsc2c1` [Compound 417, N^1,N^2-di(benzo[d]isothiazol-3-yl)ethane-1,2-diamine] was tested. Which IC50 did it give?
Its IC50 is > 5 µM.

Which IC50 does the source give for `CC(C)Nc1ccc(C(=O)NCCCNc2nsc3ccccc23)cc1` [Compound 298, N-(3-(benzo[d]isothiazol-3-ylamino)propyl)-4-(isopropylamino)benzamide] here?
The IC50 was < 5 µM.

For `O=S(=O)(NCCCNc1nsc2ccccc12)c1ccc(C(F)(F)F)cc1` [Compound 245, N-(3-(benzo[d]isothiazol-3-ylamino)propyl)-4-(trifluoromethyl)benzenesulfonamide], which IC50 is on record?
The IC50 was < 5 µM.

How did the IC50 turn out when `CCCCc1ccc(C(=O)NCCNc2nsc3ccccc23)nc1` [Compound 279, N-(2-(benzo[d]isothiazol-3-ylamino)ethyl)-5-butylpicolinamide] was run?
Its IC50 is < 5 µM.

How did the IC50 turn out when `O=S(=O)(NCCCNc1nsc2ccccc12)c1cc(F)c(Br)cc1F` [Entry 221, N-(3-(benzo[d]isothiazol-3-ylamino)propyl)-4-bromo-2,5-difluorobenzenesulfonamide] was run?
Its IC50 is < 5 µM.

With `O=S(=O)(NCCCNc1nsc2ccccc12)c1ccc(Br)s1` [Entry 222, N-(3-(benzo[d]isothiazol-3-ylamino)propyl)-5-bromothiophene-2-sulfonamide] as the molecule, how does the IC50 read?
The IC50 was < 5 µM.

How did the IC50 turn out when `COc1cccc2cc(C(=O)NCCCNc3nsc4ccccc34)oc12` [Compound 435, N-(3-(benzo[d]isothiazol-3-ylamino)propyl)-7-methoxybenzofuran-2-carboxamide] was run?
Its IC50 is < 5 µM.

`COc1cc(F)ccc1-c1ccc(NC(=O)NCCCNc2nsc3ccccc23)cc1` [Compound 393, 1-(3-(benzo[d]isothiazol-3-ylamino)propyl)-3-(4′-fluoro-2′-methoxybiphenyl-4-yl)urea] was tested. Which IC50 did it give?
Its IC50 is < 5 µM.

For `CCCNC(=O)Nc1ccc2sc(C(=O)NCCCNc3nsc4ccccc34)cc2c1` [Compound 458, N-(3-(benzo[d]isothiazol-3-ylamino)propyl)-5-(3-propylureido)benzo[b]thiophene-2-carboxamide], which IC50 is on record?
The IC50 was > 5 µM.

How did the IC50 turn out when `O=C(NCCCNc1nsc2ccccc12)c1ccc2[nH]cnc2c1` [Compound 449, N-(3-(benzo[d]isothiazol-3-ylamino)propyl)-1H-benzo[d]imidazole-5-carboxamide] was run?
Its IC50 is > 5 µM.

Which IC50 does the source give for `COc1ccc(-c2ccc(CN(CCCNc3nsc4ccccc34)C(=O)CN3CCOCC3)cc2)cc1` [Compound 255, N-(3-(benzo[d]isothiazol-3-ylamino)propyl)-N-((4′-methoxybiphenyl-4-yl)methyl)-2-morpholinoacetamide] here?
The IC50 was < 5 µM.

For `O=C(NCCNc1nsc2ccccc12)c1ccccc1C(F)(F)F` [Compound 351, N-(2-(benzo[d]isothiazol-3-ylamino)ethyl)-2-(trifluoromethyl)benzamide], which IC50 is on record?
Its IC50 is < 5 µM.

How did the IC50 turn out when `O=C(NCCCNc1nsc2ccccc12)Nc1ccc(I)cc1` [Compound 387, 1-(3-(benzo[d]isothiazol-3-ylamino)propyl)-3-(4-iodophenyl)urea] was run?
The IC50 was < 5 µM.

For `O=C(NCCNc1nsc2ccccc12)c1cc(-c2ccccc2)n[nH]1` [Compound 413, N-(2-(benzo[d]isothiazol-3-ylamino)ethyl)-3-phenyl-1H-pyrazole-5-carboxamide], which IC50 is on record?
Its IC50 is > 5 µM.

With `COc1ccc(-c2ccc(CN(CCCNc3nsc4ccccc34)C(=O)CC3CCCN3)cc2)cc1` (centres unmarked) [Compound 320, N-(3-(benzo[d]isothiazol-3-ylamino)propyl)-N-((4′-methoxybiphenyl-4-yl)methyl)-2-(pyrrolidin-2-yl)acetamide] as the molecule, how does the IC50 read?
Its IC50 is < 5 µM.

For `CC1=NN(c2ccc(C(=O)NCCNc3nsc4ccccc34)cc2)C(=O)C1` [Compound 441, N-(2-(benzo[d]isothiazol-3-ylamino)ethyl)-4-(3-methyl-5-oxo-4,5-dihydropyrazol-1-yl)benzamide], which IC50 is on record?
The IC50 was > 5 µM.

`Cc1ccc(-c2cccc(C(=O)NCCNc3nsc4ccccc34)c2)cc1C` [Compound 372, N-(2-(benzo[d]isothiazol-3-ylamino)ethyl)-3′,4′-dimethylbiphenyl-3-carboxamide] was tested. Which IC50 did it give?
Its IC50 is < 5 µM.

For `CC(C)Oc1ccccc1-c1ccc(C(=O)NCCNc2nsc3ccccc23)cc1` [Compound 377, N-(2-(benzo[d]isothiazol-3-ylamino)ethyl)-2′-isopropoxybiphenyl-4-carboxamide], which IC50 is on record?
Its IC50 is < 5 µM.

Same assay, conditions: Table 5; the head prints only IC50; b387 says Tables 5 and 6 hold Replicon reporter and Western blot results

With `O=S(=O)(NCCNc1nsc2ccccc12)c1ccc(Cl)cc1` [Compound 271, N-(2-(benzo[d]isothiazol-3-ylamino)ethyl)-4-chlorobenzenesulfonamide] as the molecule, how does the IC50 read?
Its IC50 is “A, B”.
